Experimental data reported in ChEMBL document CHEMBL1157335, “Aromatic constituents of Uvaria grandiflora” (J Nat Prod, 2006).
Converted amounts (≈) assume the structure as drawn.

Tested on: Leishmania donovani
Experiment: Antileishmanial activity against Leishmania donovani promastigotes after 48 hrs by alamar blue assay
Format: functional, organism-based

Compound | IC90 | IC50
C[C@@H]1[C@H](O)[C@@H](C)/C=C/C=C/C=C/C=C/C=C/C=C/C=C/[C@H](O[C@@H]2O[C@H](C)[C@@H](O)[C@H](N)[C@@H]2O)C[C@@H]2O[C@](O)(C[C@@H](O)C[C@@H](O)[C@H](O)CC[C@@H](O)C[C@@H](O)CC(=O)O[C@H]1C)C[C@H](O)[C@H]2C(=O)O [AMPHOTERICIN B] | 0.34 µg/mL (≈ 0.368 µM) | –
CC(=O)O[C@H]1C(=O)C=COC=C1COC(=O)c1ccccc1 [GRANDIUVARONE A] | 1.5 µg/mL (≈ 4.96 µM) | 0.7 µg/mL (≈ 2.32 µM)
N=C(N)c1ccc(OCCCCCOc2ccc(C(=N)N)cc2)cc1 [PENTAMIDINE] | 6.6 µg/mL (≈ 19.4 µM) | –
